Laboratory results as given in publication PMC8143347, “Metabolism and Interspecies Variation of IMMH-010, a Programmed Cell Death Ligand 1 Inhibitor Prodrug” (Pharmaceutics, 2021).

What was measured:
PD-1/PD-L1 = settings: stated in introduction, source not given; read-out: PD-L1 inhibitory activity IC50; cited from earlier work
[1] = Body weight in B16F10 model
Description: The antitumor activity of IMMH-010 was evaluated by B16F10 melanoma and MC38 colon carcinoma xenograft models. The B16F10 and MC38 cells were resuspended in saline (1.5 × 10^6 cells/0.2 mL saline) and injected subcutaneously into the right flanks of each mouse on day 0. The treated mice received once-daily oral administration of IMMH-010 maleate (1.25, 2.5, 5, and 10 mg/kg, n = 10) by oral gavage (PO) for 19 consecutive days, whereas the control mice received vehicle (0.5% carboxymethyl cellulose, n = 10). The mice in the positive control group received the anti-mouse PD-L1 antibody (696618M2, Bio X Cell, West Lebanon, NH, USA) at 10 mg/kg intraperitoneally every 3 days (n = 10). The first-line antineoplastic drug cyclophosphamide (CTX) was administered at doses of 80 and 40 mg/kg weekly in the B16F10 and MC38 models (n = 10), respectively. After the last treatment, on day 19, the mice were sacrificed, and the tumor and spleen were stripped and weighed. The tumor growth inhibition (TGI) was calculated as TGI = (1 − treatment group tumor weight/vehicle group tumor weight) × 100.

[2] = Metabolism in human liver S9 fractions; assay type: in vitro ADME
Description: IMMH-010 metabolism was compared in human, monkey, dog, and rat liver S9 homogenates. IMMH-010 (10 μM) was incubated with liver S9 homogenate protein (0.5 mg protein/mL) and a reduced nicotinamide adenine dinucleotide phosphate (NADPH) regenerating system in a final volume of 0.2 mL Tris-HCl buffer (50 mM, pH 7.4) containing 5 mM MgCl2. The reactions were performed in triplicate. After 2 min of preincubation at 37 °C, reactions were initiated by the addition of IMMH-010 (10 μM). The samples were collected 0, 5, 10, and 20 min after incubation, 2 volumes of acetonitrile were added to terminate the reaction. After vortexing and centrifugation, IMMH-010, YPD-29B, M3, and M4 in the supernatant were analyzed by LC-MS/MS.
All statistics were calculated using GraphPad Prism 8.0 software (San Diego, CA, USA) designed for one-way ANOVA. Pharmacokinetic parameters were calculated with a non-compartmental analysis using WinNonlin Version 6.3 (Pharsight, Mountain View, CA, USA). ADMET predictor V10.0 (Simulations Plus, Inc., Lancaster, CA, USA) and Microsoft Excel (Microsoft, Redmond, WA, USA) were used to process the data (i.e., half-life (t1/2) and hepatic clearance (CLhep) determination). Data were expressed as means ± standard deviations (SD). Results were considered statistically significant if the p-value <0.05, <0.01 and <0.001.

CES1 = target: T1, CES1 (Homo sapiens, UniProt P23141); experiment: IMMH-010 hydrolysis by recombinant human CES1; assay type: in vitro ADME; set-up: purchased Cypex Ltd. (Dundee, United Kingdom); settings: 10 μM, CES1 0.1 mg/mL, 15 min, 37 °C
T1 sequence (P23141 18-567): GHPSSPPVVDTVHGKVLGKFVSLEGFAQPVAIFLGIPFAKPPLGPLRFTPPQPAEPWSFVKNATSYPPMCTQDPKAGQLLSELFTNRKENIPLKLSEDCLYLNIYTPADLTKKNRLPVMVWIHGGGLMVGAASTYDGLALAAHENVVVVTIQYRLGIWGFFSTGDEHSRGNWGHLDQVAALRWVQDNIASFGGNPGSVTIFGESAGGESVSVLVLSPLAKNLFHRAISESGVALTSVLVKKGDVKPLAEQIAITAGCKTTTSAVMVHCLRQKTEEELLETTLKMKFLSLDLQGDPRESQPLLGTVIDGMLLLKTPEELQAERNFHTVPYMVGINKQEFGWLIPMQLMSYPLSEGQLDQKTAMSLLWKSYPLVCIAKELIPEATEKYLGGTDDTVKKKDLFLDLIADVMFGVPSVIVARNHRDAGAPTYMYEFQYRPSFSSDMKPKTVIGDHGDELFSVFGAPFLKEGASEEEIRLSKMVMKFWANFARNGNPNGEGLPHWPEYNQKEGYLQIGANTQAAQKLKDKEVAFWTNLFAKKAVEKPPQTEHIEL
Description: (§1) To verify the role of CES1, CES2, and AADAC in human metabolism of […]-010 (10 μM) was incubated individually with recombinant human CES1, CES2, and AADAC (0.1 mg protein/mL) at 37 °C for 15 min. Lidocaine (500 μM), CPT-11 (2 μM), and phenacetin (1 mM), which are substrates of CES1, CES2, and AADAC, were used as positive controls.

CES2 = target: T2, CES2 (Homo sapiens, UniProt O00748); experiment: IMMH-010 hydrolysis by recombinant human CES2; assay type: in vitro ADME; set-up: purchased Cypex Ltd. (Dundee, United Kingdom); settings: 10 μM, CES2 0.1 mg/mL, 15 min, 37 °C
T2 sequence (O00748 27-559): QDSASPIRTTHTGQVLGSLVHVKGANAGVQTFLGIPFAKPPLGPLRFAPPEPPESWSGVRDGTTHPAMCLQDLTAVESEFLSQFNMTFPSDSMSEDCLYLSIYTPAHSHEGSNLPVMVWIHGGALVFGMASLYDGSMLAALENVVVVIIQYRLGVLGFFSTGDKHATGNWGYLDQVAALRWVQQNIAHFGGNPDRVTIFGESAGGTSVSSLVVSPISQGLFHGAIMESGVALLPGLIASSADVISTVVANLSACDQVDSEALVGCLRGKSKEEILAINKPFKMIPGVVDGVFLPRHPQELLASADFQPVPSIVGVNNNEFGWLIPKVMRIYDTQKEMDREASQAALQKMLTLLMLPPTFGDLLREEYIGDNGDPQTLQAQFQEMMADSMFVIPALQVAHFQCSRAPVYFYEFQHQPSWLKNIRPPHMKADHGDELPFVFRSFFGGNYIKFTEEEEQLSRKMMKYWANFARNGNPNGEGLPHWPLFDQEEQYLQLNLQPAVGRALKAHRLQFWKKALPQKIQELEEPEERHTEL
Description: as §1

CC(C)OC(=O)[C@H](CO)NCc1cc(Cl)c(OCc2cccc(-c3ccccc3)c2Br)cc1OCc1cccnc1 [IMMH-010]
IC50 (PD-1/PD-L1): 10 to 100 nM | Body Weight (g) X ± SD Finish ([1]; B16F10, IMMH-010 maleate 1.25 mg/kg PO once daily 19 days): 20.2 ± 1.4 g | Body Weight (g) X ± SD Start ([1]; B16F10, IMMH-010 maleate 1.25 mg/kg PO once daily): 17.09 ± 0.63 g | Body Weight (g) X ± SD Finish ([1]; B16F10, IMMH-010 maleate 2.5 mg/kg PO once daily 19 days): 20.3 ± 1.2 g | Body Weight (g) X ± SD Start ([1]; B16F10, IMMH-010 maleate 2.5 mg/kg PO once daily): 16.86 ± 0.57 g | Body Weight (g) X ± SD Finish ([1]; B16F10, IMMH-010 maleate 5 mg/kg PO once daily 19 days): 20.0 ± 1.2 g | Body Weight (g) X ± SD Start ([1]; B16F10, IMMH-010 maleate 5 mg/kg PO once daily): 17.09 ± 0.81 g | Body Weight (g) X ± SD Finish ([1]; B16F10, IMMH-010 maleate 10 mg/kg PO once daily 19 days): 20.1 ± 1.0 g | Body Weight (g) X ± SD Start ([1]; B16F10, IMMH-010 maleate 10 mg/kg PO once daily): 17.15 ± 0.50 g | effect on body weight ([1]; B16F10 model, IMMH-010 maleate PO once a day for 19 days): without weight loss | estimated CLhep ([2]; from human liver S9): 18.2 mL/min/kg | half-life at 10 μM ([2]; pH 7.4, human liver S9 0.5 mg protein/mL, 10 μM, NADPH): 6.66 min | CLhep as share of hepatic blood flow ([2]; range over human, monkey, dog and rat liver S9): 83.4–91.0% | remaining amount of IMMH-010 (CES1): 12.9% | remaining amount of IMMH-010 (CES2): 94.2%
